Measurements published in patent publication US9873702B2, “Heterocyclic compounds as biogenic amine transport modulators” (Southern Research Institute, priority 2014, dated 2018).

Assays:
[1] = target: dopamine transporter (DAT) (Rattus norvegicus, UniProt P23977); assay: Dopamine reuptake ([^3H]dopamine uptake) inhibition in rat brain synaptosomes; conditions: for IC50: DA Uptake EC50 (nM ± SD), rat caudate synaptosomes, 5 nM [^3H]dopamine, 15 min, 25° C., three experiments pooled; for Emax: read-out: DA Uptake Emax (% I ± SD)
dopamine transporter (DAT), sequence (P23977 whole entry): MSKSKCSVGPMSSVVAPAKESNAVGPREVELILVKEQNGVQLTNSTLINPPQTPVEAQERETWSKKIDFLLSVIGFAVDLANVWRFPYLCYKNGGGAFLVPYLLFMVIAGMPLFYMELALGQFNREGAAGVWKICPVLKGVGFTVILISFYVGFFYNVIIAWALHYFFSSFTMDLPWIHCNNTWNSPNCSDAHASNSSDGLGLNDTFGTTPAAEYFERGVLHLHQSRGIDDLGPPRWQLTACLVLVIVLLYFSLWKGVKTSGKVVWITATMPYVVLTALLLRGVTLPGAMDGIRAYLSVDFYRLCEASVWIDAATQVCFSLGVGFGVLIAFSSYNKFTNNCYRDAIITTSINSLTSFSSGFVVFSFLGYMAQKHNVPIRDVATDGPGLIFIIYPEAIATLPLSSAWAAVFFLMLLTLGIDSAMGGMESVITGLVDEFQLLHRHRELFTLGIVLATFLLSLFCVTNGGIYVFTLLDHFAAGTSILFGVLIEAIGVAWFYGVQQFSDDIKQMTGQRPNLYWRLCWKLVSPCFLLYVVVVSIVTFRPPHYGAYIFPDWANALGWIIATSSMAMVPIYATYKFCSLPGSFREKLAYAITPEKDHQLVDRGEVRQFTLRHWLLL
Description: Freshly removed caudate was homogenized in 10% ice-cold sucrose with 12 strokes of a hand-held Potter-Elvehj em homogenizer followed by centrifugation at 1000×g for 10 min. The supernatants were saved on ice and used immediately. Transporter activity was assessed using 5 nM [^3H]dopamine. […] The selectivity of the uptake assay for dopamine active transporter (DAT) was optimized by including 100 nM citalopram and 100 nM desipramine as blockers of serotonin transporter (SERT) and norepinephrine transporter (NET) in the sucrose solution and assay buffer. Uptake inhibition assays were conducted at 25° C. and were initiated by adding 100 μl of tissue to 900 μL assay buffer containing test drug and [^3H]dopamine. Test drugs were diluted in assay buffer containing 1 mg/mL bovine serum albumin. Nonspecific uptake was measured by incubating in the presence of 10 μM indatraline. The reactions were stopped after 15 minutes by rapid vacuum filtration with a cell harvester (BRANDEL) over GF/B filters (Whatman) presoaked in wash buffer maintained at 25° C. (10 mM Tris-HCl, pH 7.4/150 mM NaCl). Filters were rinsed with 6 mL wash buffer and retained tritium was quantified by a MicroBeta liquid scintillation counter (PerkinElmer) after overnight extraction in 0.6 mL of liquid scintillation cocktail (Cytoscint, ICN). The data from three experiments were pooled and fit to a dose-response curve equation (using Kaleidagraph), to yield an Emax and EC50 value.
The data from three experiments were pooled and fit to a dose-response curve equation (using KaleidaGraph; Synergy Software, Reading, Pa.) to yield an Emax and IC50 value.

Row | SMILES | IC50 [1] [nM] | Emax [1] [%] | melting point [°C]
1 | CN(C)Cc1c[nH]c2ccc(-c3nc(NCC(c4ccccc4)c4ccccc4)c4ccccc4n3)cc12 [compound 111, 2-(3-((Dimethylamino)methyl)-1H-Indol-5-yl)-N-(2,2-Diphenylethyl)Quinazolin-4-Amine] | 381 ± 42 | 101 ± 2 | 182
2 | Cn1cc(-c2nc(NCC(c3ccccc3)c3ccccc3)c3ccccc3n2)cn1 [compound 76, N-(2,2-Diphenylethyl)-2-(1-Methyl-1H-Pyrazol-4-yl)Quinazolin-4-Amine] | 170 | < 100 | 211
3 | COc1cc2nc(-c3cccnc3)nc(NCC(c3ccccc3)c3ccccc3)c2cc1OC [compound 28, N-(2,2-Diphenylethyl)-6,7-Dimethoxy-2-(Pyridin-3-yl)Quinazolin-4-Amine] | 620 | < 100 | 89
4 | c1ccc(C(CNc2nc(-c3ccc4[nH]nnc4c3)nc3ccccc23)c2ccccc2)cc1 [compound 63, 2-(1H-Benzo[D][1,2,3]Triazol-5-yl)-N-(2,2-Diphenylethyl)Quinazolin-4-Amine] | 192 ± 37 | 72 ± 3 | 220
5 | c1ccc(C(CNc2nc(-c3cccc4[nH]ncc34)nc3ccccc23)c2ccccc2)cc1 [compound 35, N-(2,2-Diphenylethyl)-2-(1H-Indazol-4-yl)Quinazolin-4-Amine] | 475 ± 85 | 72 ± 3 | 229
6 | COc1ccc2nc(-c3ccc4[nH]ccc4c3)nc(NCC(c3ccccc3)c3ccccc3)c2c1 [compound 61, N-(2,2-Diphenylethyl)-2-(1H-Indol-5-yl)-6-Methoxyquinazolin-4-Amine] | 115 ± 20 | 80 ± 3 | 112
7 | CC(C)(C)OC(=O)N[C@H](CNc1nc(-c2ccc3nccn3c2)nc2ccccc12)c1ccccc1 [compound 146, (S)-Tert-Butyl (2-((2-(Imidazo[1,2-A]Pyridin-6-yl)Quinazolin-4-yl)Amino)-1-Phenylethyl)Carbamate] | 414 ± 44 | 65 ± 1 | 252 to 254
8 | c1ccc(C2CN(c3nc(-c4ccc5nccn5c4)nc4ccccc34)Cc3ccccc32)cc1 (stereo not shown) [compound 135, 2-(Imidazo[1,2-A]Pyridin-6-yl)-4-(4-Phenyl-3,4-Dihydroisoquinolin-2(1H)-yl)Quinazoline] | 1490 ± 342 | 70 ± 4 | 107 to 109
9 | c1ccc(C(CNc2nc(-n3cnc4cncnc43)nc3ccccc23)c2ccccc2)cc1 [compound 90, N-(2,2-Diphenylethyl)-2-(9H-Purin-9-yl)Quinazolin-4-Amine] | 94 ± 10 | 75 ± 2 | 264
10 | CS(=O)(=O)Nc1ncc(-c2nc(NCC(c3ccccc3)c3ccccc3)c3ccccc3n2)cn1 [compound 139, N-(5-(4-((2,2-Diphenylethyl)Amino)Quinazolin-2-yl)Pyrimidin-2-yl)Methanesulfonamide] | 205 ± 32 | 67 ± 2 | 214
11 | c1ccc(C(CNc2nc(-c3ccc4[nH]ncc4c3)nc3ccccc23)c2ccccc2)cc1 [compound 40, N-(2,2-Diphenylethyl)-2-(1H-Indazol-5-yl)Quinazolin-4-Amine] | 124 ± 37 | 74 ± 4 | 191
12 | c1ccc(C(Nc2nc(-c3cncnc3)nc3ccccc23)c2ccccc2)cc1 [compound 14, N-Benzhydryl-2-(pyrimidin-5-yl)quinazolin-4-amine] | 234 ± 36 | 74 ± 2 | 210
13 | CN(C)c1ccc(-c2nc(NCCC(c3ccccc3)c3ccccc3)c3ccccc3n2)cn1 [compound 93, 2-(6-(Dimethylamino)Pyridin-3-yl)-N-(3,3-Diphenylpropyl)Quinazolin-4-Amine] | 29 ± 4 | 76 ± 2 | 195
14 | Cc1nc(C)c(-c2nc(NCC(c3ccccc3)c3ccccc3)c3ccccc3n2)s1 [compound 54, 2-(2,4-Dimethylthiazol-5-yl)-N-(2,2-Diphenylethyl)Quinazolin-4-Amine] | 72 ± 12 | 80 ± 2 | 78
15 | c1ccc(C(CNc2nc(-c3cnc4nccn4c3)nc3ccccc23)c2ncccn2)cc1 (stereo not shown) [compound 109, 2-(Imidazo[1,2-A]Pyrimidin-6-yl)-N-(2-Phenyl-2-(Pyrimidin-2-yl)Ethyl)Quinazolin-4-Amine] | 377 ± 78 | 57 ± 2 | 180
16 | c1ccc(C(CNc2nc(-c3cccc4cc[nH]c34)nc3ccccc23)c2ccccc2)cc1 [compound 33, N-(2,2-Diphenylethyl)-2-(1H-Indol-7-yl)Quinazolin-4-Amine] | – | – | 67
17 | O=C(N[C@H](CNc1nc(-c2ccc3nccn3c2)nc2ccccc12)c1ccccc1)c1ccccc1 [compound 150, (S)—N-(2-((2-(Imidazo[1,2-A]Pyridin-6-yl)Quinazolin-4-yl)Amino)-1-Phenylethyl)Benzamide] | – | – | 97 to 99
18 | CN1CCN(C(CNc2nc(-c3ccc4nccn4c3)nc3ccccc23)c2ccccc2)CC1 (stereo not shown) [compound 126, 2-(Imidazo[1,2-A]Pyridin-6-yl)-N-(2-(4-Methylpiperazin-1-yl)-2-Phenylethyl)Quinazolin-4-Amine] | – | – | 225 to 227
19 | CC(C)(C)OC(=O)n1cc(-c2nc(NCC(c3ccccc3)c3ccccc3)c3ccccc3n2)c2ccccc21 [compound 72, Tert-Butyl 3-(4-((2,2-Diphenylethyl)Amino)Quinazolin-2-yl)-1H-Indole-1-Carboxylate] | – | – | 90
20 | Clc1cccc(C(CNc2nc(-c3cccnc3)nc3ccccc23)c2ccccc2)n1 (stereo not shown) [compound 53, N-(2-(6-Chloropyridin-2-yl)-2-Phenylethyl)-2-(Pyridin-3-yl)Quinazolin-4-Amine] | – | – | 83
21 | CC(C)(C)OC(=O)N1CCc2cc(-c3nc(NCC(c4ccccc4)c4ccccc4)c4ccccc4n3)ccc21 [compound 74, Tert-Butyl 5-(4-((2,2-Diphenylethyl)Amino)Quinazolin-2-yl)Indoline-1-Carboxylate] | – | – | 127

Results, then the compound that gave them:

Row | IC50 [1] [nM] | Emax [1] [%] | melting point [°C] | SMILES
22 | 78 ± 14 | 72 ± 2 | 221 to 223 | CCN(CC)C(=O)[C@]1(c2ccccc2)C[C@@H]1CNc1nc(-c2ccc3nccn3c2)nc2ccccc12 [compound 170, (1R,2S)—N,N-Diethyl-2-(((2-(Imidazo[1,2-A]Pyridin-6-yl)Quinazolin-4-yl)Amino)Methyl)-1-Phenylcyclopropanecarboxamide]
23 | 2.3 ± 0.5 | 75 ± 3 | 243 to 246 | Cc1cc2nccn2cc1-c1nc(NCC(Oc2ccccc2)c2ccccc2)c2ccccc2n1 (stereo not shown) [compound 177, 2-(7-Methylimidazo[1,2-A]Pyridin-6-yl)-N-(2-Phenoxy-2-Phenylethyl)Quinazolin-4-Amine]
24 | 14 ± 2 | 78 ± 2 | 203 to 204 | c1ccc(CC(Nc2nc(-c3ccc4nccn4c3)nc3ccccc23)c2ccccc2)cc1 (stereo not shown) [compound 165, N-(1,2-Diphenylethyl)-2-(Imidazo[1,2-A]pyridin-6-yl)Quinazolin-4-Amine]
25 | 5.7 ± 1.6 | 74 ± 3 | 215 to 218 | COC(CNc1nc(-c2cn3ccnc3cc2C)nc2ccccc12)c1ccccc1 (stereo not shown) [compound 187, N-(2-Methoxy-2-phenylethyl)-2-(7-methylimidazo[1,2-a]pyridin-6-yl)quinazolin-4-amine]
26 | 41 ± 8 | 70 ± 2 | 247 to 249 | COc1ccc(C(CNc2nc(-c3ccc4nccn4c3)nc3ccccc23)C2(O)CCCCC2)cc1 (stereo not shown) [compound 153, 1-(2-((2-(Imidazo[1,2-A]Pyridin-6-yl)Quinazolin-4-yl)Amino)-1-(4-Methoxyphenyl)ethyl)Cyclohexanol]
27 | 9.4 ± 2.3 | 76 ± 3 | 119 to 120 | Cc1cc2nccn2cc1-c1nc(NC(CCc2ccccc2)c2ccccc2)c2ccccc2n1 (stereo not shown) [compound 167, N-(1,3-Diphenylpropyl)-2-(7-Methylimidazo[1,2-A]Pyridin-6-yl)Quinazolin-4-Amine]
28 | 42 ± 7 | 68 ± 2 | 190 to 192 | c1ccc(CCC(Nc2nc(-c3ccc4nccn4c3)nc3ccccc23)c2ccccc2)cc1 (stereo not shown) [compound 166, N-(1,3-Diphenylpropyl)-2-(Imidazo[1,2-A]Pyridin-6-yl)Quinazolin-4-Amine]
29 | 14 ± 3 | 74 ± 2 | 221 to 224 | Cc1cc2nccn2cc1-c1nc(NCC(O)c2ccccc2)c2ccccc2n1 (stereo not shown) [compound 186]
30 | 3 ± 1 | 80 ± 4 | 236 to 238 | Cc1cc2nccn2cc1-c1nc(NCC(c2ccccc2)C2CC2)c2ccccc2n1 (stereo not shown) [compound 179, N-(2-Cyclopropyl-2-Phenylethyl)-2-(7-Methylimidazo[1,2-A]Pyridin-6-yl)Quinazolin-4-Amine]
31 | 14 ± 3 | 68 ± 2 | 121 to 125 | Cc1cc2nccn2cc1-c1nc(NCC(c2cccnc2)c2ccc[nH]2)c2ccccc2n1 (stereo not shown) [compound 156, 2-(7-Methylimidazo[1,2-A]Pyridin-6-yl)-N-(2-(Pyridin-3-yl)-2-(1H-Pyrrol-2-yl)Ethyl)Quinazolin-4-Amine]
32 | 8.3 ± 0.9 | 75 ± 1 | 181 to 184 | Cc1cc2nccn2cc1-c1nc(NCC(Cc2ccccc2)Cc2ccccc2)c2ccccc2n1 [compound 182, N-(2-Benzyl-3-Phenylpropyl)-2-(7-Methylimidazo[1,2-A]Pyridin-6-yl)Quinazolin-4-Amine]
33 | – | – | 235 to 237 | c1ccc(C(CNc2nc(-c3ccc4nccn4c3)nc3ccccc23)c2ccc[nH]2)nc1 (stereo not shown) [compound 159, 2-(Imidazo[1,2-A]pyridin-6-yl)-N-(2-(Pyridin-2-yl)-2-(1H-Pyrrol-2-yl)Ethyl)Quinazolin-4-Amine]
